Test results published in US10759768B2, “Prophylactic or therapeutic agent for autism spectrum disorder” (priority 2016, dated 2020).
Entries after “also recorded” stand apart in the source; their conditions may differ.

Test system: rat valproic acid-exposed autism model
Test: Sociability test (3 chamber) in rat embryonic valproic acid-exposed autism model
Assay type: in vivo
Settings: compound A 0.2 or 1 mg/kg orally once a day for 14 days from 3 weeks of age; male Sprague-Dawley offspring exposed to VPA 500 mg/kg i.p.; test at 5 weeks of age; FIG. 1
Procedure: Rat embryonic valproic acid-exposed autism model was used for the test. Sodium valproate (VPA) 500 mg/kg (mpk) was intraperitoneally administered to Sprague-Dawley pregnant rats on the 12.5th day in the embryonic stage. The offspring was weaned on the 21st day after birth, and only the male rat was used for the experiment. Compound A (0.2 or 1 mg/kg) was orally administered once a day at 18 o'clock for 14 days from 3 weeks of age after weaning and a behavioral test was conducted at 5 weeks of age. As unknown rat (Stranger rat), a purchased male rat of the same strain and the same week of age was used with no contact with the rat to be tested (test rat) until the day of the test.
In the experiment, a black plastic 3 chamber experimental apparatus (90×60×34 cm, each chamber 30×60×34 cm) was used. […]
On the day of the test, the rats to be tested and unknown rats were acclimated to the test environment for 1 hour or more and then the test was started. […] The sniffing to each cylinder (action of sniffing an object or an animal) was visually measured for 10 min. A sniffing index, which is an indicator of interest to other animal, was calculated by the following formula based on the sniffing time to each cylinder for 10 min. […]

CC(=O)NCC[C@@H]1CCc2ccc3nc(C)oc3c21 [compound A, (S)—N-[2-(2-methyl-7,8-dihydro-6H-indeno[5,4-d][1,3]oxazol-8-yl)ethyl]acetamide]
effect on social disorder / social performance (Sniffing index, Sniffing time to object): significant (# P≤0.025) improvement effect on social performance; also recorded: showed effectiveness on the social disorder
